Results: article PMC4101055 (Antiviral research, 2014)
“Also recorded” adds a separate entry of the source.

How the values were obtained:
[1] = biological target: recombinant genotype D HBV RNaseH (Hepatitis B virus genotype D subtype ayw, UniProt P03156); assay: Oligonucleotide-directed RNA cleavage assay, HBV genotype D RNaseH; format: biochemical; settings: for activity against the HBV RNaseH (in words): genotype D and C enzymes, up to 60 µM
[2] = biological target: genotype C HBV RNaseH (Hepatitis B virus, UniProt P12933); assay: Oligonucleotide-directed RNA cleavage assay, HBV genotype C RNaseH; format: biochemical; settings: read-out: Genotype C IC50; average ± SD, three or four independent assays
[3] = biological target: E. coli RNaseH (Escherichia coli, UniProt P0A7Y4); assay: Oligonucleotide-directed cleavage assay with E. coli RNaseH; format: biochemical; settings: identical conditions to the HBV RNaseH assay
[4] = tested on: HBV genotype D replication in HepDES19 cells; assay: HBV replication assay in HepDES19 cells; format: cell-based, Hepatitis B virus; settings: same samples as the EC50 assay
[5] = tested on: HepDES19 cells; assay: MTT cytotoxicity assay; format: cell-based, human; settings: read-out: Cytotoxicity CC50, MTT, 3 days treatment
[6] = tested on: HBV replication; settings: read-out: EC50 against HBV replication; ref Hu et al., 2013; cited from earlier work
[7] = tested on: HIV RNaseH; settings: read-out: IC50 against the HIV RNaseH; ref Billamboz et al., 2011b; cited from earlier work

Chain of recombinant genotype D HBV RNaseH (P03156 671-832): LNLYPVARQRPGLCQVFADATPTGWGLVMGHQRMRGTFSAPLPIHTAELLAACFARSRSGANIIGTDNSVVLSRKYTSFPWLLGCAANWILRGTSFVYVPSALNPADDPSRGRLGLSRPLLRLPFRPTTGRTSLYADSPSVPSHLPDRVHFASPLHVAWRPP
Chain of E. coli RNaseH (P0A7Y4 whole entry): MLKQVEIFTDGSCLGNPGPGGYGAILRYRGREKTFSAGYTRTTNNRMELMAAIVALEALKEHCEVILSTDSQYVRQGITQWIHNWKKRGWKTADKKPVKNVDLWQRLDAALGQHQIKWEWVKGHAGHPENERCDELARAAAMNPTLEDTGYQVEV
Chain of genotype C HBV RNaseH (P12933 682-843): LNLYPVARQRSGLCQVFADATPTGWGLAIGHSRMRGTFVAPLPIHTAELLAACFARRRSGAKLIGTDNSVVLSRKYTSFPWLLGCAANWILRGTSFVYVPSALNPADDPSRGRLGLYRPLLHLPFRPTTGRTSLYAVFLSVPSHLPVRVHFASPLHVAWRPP

## O=C1Cc2ccccc2C(=O)N1O [Compound 1, 2-hydroxyisoquinoline-1,3(2H,4H)-dione]
[1]
  IC50: 28.1 ± 9.7 µM
[2]
  IC50: 30.4 ± 12.9 µM
[3]
  Effect on E. coli RNaseH activity: not affected; also recorded: inactive
[4]
  Accumulation of minus-polarity HBV DNA strand: not suppressed
[5]
  CC50: 74.7 ± 24 µM

## CC(C)c1ccc(O)c(=O)c(O)c1 [Compound 46, β-thujaplicinol]
[6]
  EC50: ~5 µM

## COC(=O)C1C(=O)N(O)C(=O)c2ccccc21 (stereo not shown) [Compound 81, 2-hydroxy-4-methoxycarbonylisoquinoline-1,3(2H,4H)-dione]
[1]
  activity against the HBV RNaseH (in words): negligible activity
[7]
  IC50: 0.061 µM

## O=C1c2ccccc2C(=O)N1O [Compound 138]
[1]
  activity against the HBV RNaseH (in words): inactivity

## O=C1CCC(=O)N1O [Compound 139]
[1]
  activity against the HBV RNaseH (in words): inactivity
